Reference: patent US20250136576A1, “Heterocyclic Compounds and Uses Thereof” (ACEA Therapeutics, Inc., priority 2021, published 2025)
Where two headings read alike, the source gives them in different places.

System: KM12-luc cells
Experiment: Cell proliferation and growth inhibition assay (CCK-8) in KM12-luc
Assay type: cell-based
Details: read-out: NTRK IC50 in KM12-luc
Procedure: MV-4-11 and H1975 cells were obtained from the American Type Culture Collection and KM12-luc cells were obtained from JCRB Cell Bank. All cell lines were maintained at 37° C. with 5% C02, in media supplemented with 10% fetal bovine serum and penicillin (100 units/mL) and streptomycin (100 μg/mL). MV-4-11 cells were maintained in Iscove's Modified Dubecco's Medium, H1975 cells were cultured with RPMI 1640 media, and KM12-luc cells were maintained in Dulbecco's Modification of Eagle's Medium. CCK-8 reagent was obtained from Yeasen. Cell proliferation was assessed by CCK-8 assay (Yeasen) per the manufacturer's instructions. […] Cell viability was assayed by incubating the cells with CCK-8 reagent for 1-4 hrs. Absorbance was measured at OD450 using the Beckman DTX880. The data was calculated using GraphPad Prism version 6.01. The IC50 values were fitted using a non-linear regression model with a sigmoidal dose response.

[1] = KM12-Luc, 72 h, KM12-luc cells, treated with test compounds for 72 hrs, CCK-8 viability
[2] = KM12-luc cells, treated with test compounds for 72 hrs, CCK-8 viability

Compound | IC50 (KM12-Luc, 72 h) [nM] | IC50 [1] [nM] | other results
CCN(CCN(C)C)c1ccc(Nc2nc(-c3cn(C)c4ccccc34)c3cc[nH]c3n2)cc1NC(C)=O [Compound 212c, N-(2-((2-(dimethylamino)ethyl)(ethyl)amino)-5-((4-(1-methyl-1H-indol-3-yl)-7H-pyrrolo[2,3-d]pyrimidin-2-yl)amino)phenyl)acetamide] | 43.2 | – | –
CCN(CCN(C)C)c1ccc(Nc2nc(-c3cn(C)c4ccccc34)c3cc[nH]c3n2)cc1NC(=O)C(C)C [Compound 212d, N-(2-((2-(dimethylamino)ethyl)(ethyl)amino)-5-((4-(1-methyl-1H-indol-3-yl)-7H-pyrrolo[2,3-d]pyrimidin-2-yl)amino)phenyl)isobutyramide] | – | 93.1 | –
CCN(CCN(C)C)c1ccc(Nc2nc(-c3cn(C)c4ccccc34)c3cc[nH]c3n2)cc1NCCF [Compound 212e, N^1-(2-(dimethylamino)ethyl)-N^1-ethyl-N^2-(2-fluoroethyl)-N^4-(4-(1-methyl-1H-indol-3-yl)-7H-pyrrolo[2,3-d]pyrimidin-2-yl)benzene-1,2,4-triamine] | – | 3360 | –
CCNc1cc(Nc2nc(-c3cn(C)c4ccccc34)c3cc[nH]c3n2)ccc1N(CC)CCN(C)C [Compound 212f, N^1-(2-(dimethylamino)ethyl)-N^1,N^2-diethyl-N^4-(4-(1-methyl-1H-indol-3-yl)-7H-pyrrolo[2,3-d]pyrimidin-2-yl)benzene-1,2,4-triamine] | 546 | – | –
CC(=O)Nc1cc(Nc2nc(-c3c[nH]c4cccc(F)c34)c3cc[nH]c3n2)ccc1N(C)CCN(C)C [Compound 216, N-(2-((2-(dimethylamino)ethyl)(methyl)amino)-5-((4-(4-fluoro-1H-indol-3-yl)-7H-pyrrolo[2,3-d]pyrimidin-2-yl)amino)phenyl)acetamide] | – | 49.7 | –
CC(=O)Nc1cc(Nc2nc(-c3cn(C)c4cccc(F)c34)c3cc[nH]c3n2)ccc1N(C)CCN(C)C [Compound 218, N-(2-((2-(dimethylamino)ethyl)(methyl)amino)-5-((4-(4-fluoro-1-methyl-1H-indol-3-yl)-7H-pyrrolo[2,3-d]pyrimidin-2-yl)amino)phenyl)acetamide] | – | 103 | –
CCN(CCN(C)C)c1cc(F)c(Nc2nc(-c3cn(C)c4cccc(F)c34)c3cc[nH]c3n2)cc1NC(C)=O [Compound 222, N-(2-((2-(dimethylamino)ethyl)(ethyl)amino)-4-fluoro-5-((4-(4-fluoro-1-methyl-1H-indol-3-yl)-7H-pyrrolo[2,3-d]pyrimidin-2-yl)amino)phenyl)acetamide] | – | 1440 | –
CC(=O)Nc1cc(Nc2nc(-c3cn(C)c4ccc(F)cc34)c3cc[nH]c3n2)ccc1N(C)CCN(C)C [Compound 227a, N-(2-((2-(dimethylamino)ethyl)(methyl)amino)-5-((4-(5-fluoro-1-methyl-1H-indol-3-yl)-7H-pyrrolo[2,3-d]pyrimidin-2-yl)amino)phenyl)acetamide] | 578 | – | –
CCNc1cc(Nc2nc(-c3cn(C)c4ccc(F)cc34)c3cc[nH]c3n2)ccc1N(C)CCN(C)C [Compound 227b, N^1-(2-(dimethylamino)ethyl)-N^2-ethyl-N^4-(4-(5-fluoro-1-methyl-1H-indol-3-yl)-7H-pyrrolo[2,3-d]pyrimidin-2-yl)-N^1-methylbenzene-1,2,4-triamine] | 672 | – | –
CCN(CCN(C)C)c1ccc(Nc2nc(-c3cn(C)c4ccc(F)cc34)c3cc[nH]c3n2)cc1NC(C)=O [Compound 227c, N-(2-((2-(dimethylamino)ethyl)(ethyl)amino)-5-((4-(5-fluoro-1-methyl-1H-indol-3-yl)-7H-pyrrolo[2,3-d]pyrimidin-2-yl)amino)phenyl)acetamide] | 436 | – | –
CCNc1cc(Nc2nc(-c3cn(C)c4ccc(F)cc34)c3cc[nH]c3n2)ccc1N(CC)CCN(C)C [Compound 227d, N^1-(2-(dimethylamino)ethyl)-N^1,N^2-diethyl-N^4-(4-(5-fluoro-1-methyl-1H-indol-3-yl)-7H-pyrrolo[2,3-d]pyrimidin-2-yl)benzene-1,2,4-triamine] | 2010 | – | –
CC(=O)Nc1cc(Nc2nc(-c3cn(C)c4cc(F)ccc34)c3cc[nH]c3n2)ccc1N(C)CCN(C)C [Compound 232a, N-(2-((2-(dimethylamino)ethyl)(methyl)amino)-5-((4-(6-fluoro-1-methyl-1H-indol-3-yl)-7H-pyrrolo[2,3-d]pyrimidin-2-yl)amino)phenyl)acetamide] | 85.5 | – | –
CCNc1cc(Nc2nc(-c3cn(C)c4cc(F)ccc34)c3cc[nH]c3n2)ccc1N(C)CCN(C)C [Compound 232b, N^1-(2-(dimethylamino)ethyl)-N^2-ethyl-N^4-(4-(6-fluoro-1-methyl-1H-indol-3-yl)-7H-pyrrolo[2,3-d]pyrimidin-2-yl)-N^1-methylbenzene-1,2,4-triamine] | 492 | – | –
CC(=O)Nc1cc(Nc2nc(-c3cn(C)c4cc(F)c(F)cc34)c3cc[nH]c3n2)ccc1N(C)CCN(C)C [Compound 237, N-(5-((4-(5,6-difluoro-1-methyl-1H-indol-3-yl)-7H-pyrrolo[2,3-d]pyrimidin-2-yl)amino)-2-((2-(dimethylamino)ethyl)(methyl)amino)phenyl)acetamide] | – | 537 | –
Cc1ccc2[nH]cc(-c3nc(Nc4ccc(N(C)CCN(C)C)c(N(C)C)c4)nc4[nH]ccc34)c2c1 [Compound 239, N^1-(2-(dimethylamino)ethyl)-N^1,N^2,N^2-trimethyl-N^4-(4-(5-methyl-1H-indol-3-yl)-7H-pyrrolo[2,3-d]pyrimidin-2-yl)benzene-1,2,4-triamine] | – | 518 | –
CC(=O)Nc1cc(Nc2nc(-c3cn(C)c4ccc(C)cc34)c3cc[nH]c3n2)ccc1N(C)CCN(C)C [Compound 244, N-(5-((4-(1,5-dimethyl-1H-indol-3-yl)-7H-pyrrolo[2,3-d]pyrimidin-2-yl)amino)-2-((2-(dimethylamino)ethyl)(methyl)amino)phenyl)acetamide] | – | 348 | –
CCn1cc(-c2nc(Nc3ccc(N(C)CCN(C)C)c(NC(C)=O)c3)nc3[nH]ccc23)c2cc(F)ccc21 [Compound 246, N-(2-((2-(dimethylamino)ethyl)(methyl)amino)-5-((4-(1-ethyl-5-fluoro-1H-indol-3-yl)-7H-pyrrolo[2,3-d]pyrimidin-2-yl)amino)phenyl)acetamide] | – | 69.9 | –
CC(=O)Nc1cc(Nc2nc(-c3cn(C)c4ccccc34)c3c(F)c[nH]c3n2)ccc1N(C)CCN(C)C [Compound 253, N-(2-((2-(dimethylamino)ethyl)(methyl)amino)-5-((5-fluoro-4-(1-methyl-1H-indol-3-yl)-7H-pyrrolo[2,3-d]pyrimidin-2-yl)amino)phenyl)acetamide] | – | 97.5 | –
CC(=O)Nc1cc(Nc2nc(-c3cn(C)nc3C)c3cc[nH]c3n2)ccc1N(C)CCN(C)C [Compound 255a, N-(5-(4-(1,3-dimethyl-1H-pyrazol-4-yl)-7H-pyrrolo[2,3-d]pyrimidin-2-ylamino)-2-((2-(dimethylamino)ethyl)(methyl)amino)phenyl)acetamide] | – | – | IC50 [2]: 246 nM
CC(=O)Nc1cc(Nc2nc(-c3cn(C)nc3C)c3cc[nH]c3n2)ccc1N(C)CCN(C)C [Compound 255b, N-(5-(4-(1,3-dimethyl-1H-pyrazol-4-yl)-7H-pyrrolo[2,3-d]pyrimidin-2-ylamino)-2-((2-(dimethylamino)ethyl)(methyl)amino)phenyl)acetamide] | – | – | IC50 [2]: > 10000 nM
